“And” between values parts separate entries of the source, which are not always exact repeats. Equal values may be shown once.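 Protocol summary: plate cells (96-well), add compound at 5 concentrations, incubate 48 h, interpolate endpoints linearly. GI50 marks 50% less growth. TGI: total growth inhibition.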
Tests used:
Test in all cases: growth of human tumour cells (NCI), 48 h
[1] = system: SNB-19 CNS
[2] = system: OVCAR-4 ovarian
[3] = system: SNB-75 CNS
[4] = system: NCI-H226 lung
[5] = system: HL-60(TB) leukemia
[6] = system: ACHN renal
[7] = system: HCT-15 colon
[8] = system: UACC-62 melanoma
[9] = system: SF-539 CNS
[10] = system: BT-549 breast

Row | SMILES | GI50 [1] | TGI [1] | GI50 [2] | TGI [2] | GI50 [3] | TGI [3] | GI50 [4] | TGI [4] | GI50 [5] | TGI [5] | GI50 [6] | TGI [6] | GI50 [7] | TGI [7] | GI50 [8] | TGI [8] | GI50 [9] | TGI [9] | GI50 [10] | TGI [10]
1 | CC(C)[C@]12O[C@H]1[C@@H]1O[C@]13[C@]1(O[C@H]1C[C@H]1C4=C(CC[C@@]13C)C(=O)OC4)[C@@H]2OC(=O)OC(C)(C)C | 0.128 µM | > 100 µM | 0.0273 µM | > 100 µM | 0.0193 µM | 0.062 µM | < 0.0143 µM | 0.173 µM | < 0.01 µM | 0.805 µM | 0.0107 µM | > 100 µM | 0.0253 µM | > 100 µM | 0.0178 µM | 0.0571 µM | 0.0217 µM | 0.294 µM | 0.0172 µM | 0.0616 µM
2 | CSc1nc(SC)c2cnn(-c3ccnc4cc(Cl)ccc34)c2n1 | > 100 µM | > 100 µM | > 100 µM | > 100 µM | > 67.8 µM | > 100 µM | 85.4 µM | > 100 µM | 21.5 µM | 50.6 µM | 42 µM | > 86.8 µM | > 71.3 µM | > 100 µM | 33.9 µM | > 100 µM | 29.1 µM | > 62.4 µM | 43.3 µM | > 87.7 µM
3 | O=C(NCCCNc1cc(-c2cn(-c3ccccc3)nc2-c2cccc(O)c2)ccn1)c1ccc(F)cc1 | 4.63 µM | 29.5 µM | 3.79 µM | > 100 µM | 5.19 µM | > 100 µM | 3.7 µM | 12.4 µM | 2.46 µM | 6.49 µM | 3.36 µM | 73.6 µM | 1.77 µM | 4.7 µM | 2.05 µM | 5.08 µM | 2.15 µM | 5.41 µM | 1.59 µM | 6.31 µM
4 | CC12OC(C(=O)C13CC3)C1C(=O)c3cccc(O)c3C(=O)C12 (stereo not drawn) | 10.4 µM | 40.1 µM | 3.16 µM | 12 µM | 12.5 µM | > 37.4 µM | 22.9 µM | 78.5 µM |  | 0.539 µM | 2.95 µM | > 39.1 µM | 9.82 µM | > 54.8 µM | 5.23 µM | 37.2 µM | 5.36 µM | > 56.1 µM | 19.1 µM | 58.1 µM
5 | CCOC(=O)c1cc2c(OC)cc(OC)cc2oc1=O |  | > 100 µM |  | > 100 µM |  | > 100 µM |  | > 100 µM |  | > 100 µM |  | > 100 µM |  | > 100 µM |  | > 100 µM |  | > 100 µM |  | > 100 µM
6 | Oc1c(CCl)cc(Cl)cc1Cc1cc(Cl)cc(Cc2cc(Cl)cc(CCl)c2O)c1O | 3.02 µM | 15.9 µM | 3.1 µM | 64.7 µM | 3.95 µM | 80.2 µM | 4.11 µM | 21.1 µM | 2.48 µM | 8.13 µM | 3.09 µM | 12.8 µM | 2.88 µM | 12 µM | 2.9 µM | 11.1 µM | 4.16 µM | 18.2 µM | 2.71 µM | 11.5 µM
7 | CC[n+]1c(/C=C/c2ccc(N3CCCC3)cc2)cccc1/C=C/c1ccc(N2CCCC2)cc1 | 0.31 µM | 1.55 µM | 0.0386 µM | 1.29 µM | 0.16 µM | 0.88 µM | 0.146 µM | 1.49 µM | 0.049 µM and 0.391 µM |  | 0.18 µM and 0.24 µM | 0.915 µM and 1.14 µM | 0.332 µM | 1.23 µM | 0.356 µM and 0.387 µM | 1.7 µM and 1.67 µM | 0.274 µM | 1.44 µM | 0.103 µM | 1.76 µM
8 | COc1ccc(/C=C/C(=O)c2ccc(B(O)O)cc2)cc1O | 18.7 µM | > 64.3 µM | 16.7 µM | 40.3 µM | 9.9 µM | 31.2 µM | 28.2 µM | 97.1 µM | 2.52 µM | 44.2 µM | 22.1 µM | > 84.7 µM | 4.95 µM | > 39.3 µM | 14.3 µM | 33.2 µM | 12.5 µM | > 79.6 µM | 6.8 µM | 20.1 µM
9 | Nc1n[nH]c2ccc([C@H]3[C@@H]4C5CCC(C5)[C@@H]4c4c(ccc5[nH]ncc45)N3S(=O)(=O)C3CC3)cc12 (stereo partly drawn) | 0.21 µM | > 38.3 µM | 2.63 µM | > 50 µM | 0.138 µM | 2.42 µM | 0.441 µM | 10.1 µM | 0.12 µM | 0.996 µM | 0.346 µM | 22.5 µM | 0.198 µM | > 28.8 µM | 0.137 µM | 5.54 µM | 0.135 µM | 0.484 µM | 0.34 µM | 5.73 µM
10 | COc1ccc2c(c1)OC(N)=C(C#N)C2c1ccc(F)c(F)c1 (stereo not drawn) | 0.58 µM | > 100 µM | 2.33 µM | > 100 µM | 0.186 µM | 4.87 µM | 19.2 µM | > 100 µM | 0.272 µM | 0.716 µM | 0.564 µM | > 72.8 µM | 0.348 µM | > 59 µM | 0.418 µM | > 100 µM | 0.271 µM | 1.05 µM | 0.598 µM | 65.6 µM
11 | O=C(NC(=S)Nc1ccc(-c2nc3ccccc3[nH]2)cc1)c1ccc2ccccc2c1 | 68.1 µM | > 100 µM | 2.78 µM | 9.22 µM | 1.46 µM | 3.38 µM | 4.36 µM | 25.4 µM | 6.31 µM | 26 µM | 1.92 µM | 4.02 µM | 3.15 µM | 50.1 µM | 4.06 µM | > 100 µM | 2.07 µM | 4.53 µM | 2.2 µM | 6.73 µM
12 | CN1CCN(C(=O)OCc2nc3c(N4CCOCC4)nc(-c4ccccc4)nc3n2C)CC1 | 1.45 µM | 2.78 µM | 1.2 µM | 2.65 µM | 1.04 µM | 2.27 µM | 1.61 µM | 3.78 µM | 0.753 µM | 2.66 µM | 0.544 µM | 1.77 µM | 0.317 µM | 1.26 µM | 1.25 µM | 2.52 µM | 1.33 µM | 2.6 µM | 1 µM | 2.25 µM
13 | O=C(CSc1nc2ccc([N+](=O)[O-])cc2[nH]1)Nc1ccc([N+](=O)[O-])cc1 | 3.02 µM | 18 µM | 1.92 µM | 29.3 µM | 1.84 µM | 6.95 µM | 2 µM | 7.88 µM | 2.81 µM | > 25.7 µM | 2.49 µM | 8.02 µM | 2.93 µM | 17.6 µM | 1.36 µM | 7.52 µM | 2.96 µM | 11.9 µM | 2.34 µM | 14.3 µM
14 | COc1cccc(Nc2ncnn3ccc(CN4CC[C@@H](N)[C@H](O)C4)c23)c1 | 14.4 µM and 8.98 µM | 97.7 µM and > 10 µM | 13.3 µM and > 5.11 µM | 55.4 µM and > 10 µM | 0.102 µM and 0.043 µM | 0.808 µM and 0.49 µM | 2.66 µM and 1.38 µM | 13 µM and > 8.94 µM | 20.3 µM and > 4.71 µM | 41.1 µM and > 8.1 µM | 0.0305 µM and 0.0373 µM | 6.96 µM and 7.74 µM | 3.24 µM and 2.15 µM | 97.9 µM and > 10 µM | 20.4 µM and > 3.85 µM | 41.3 µM and > 9.23 µM | 1.72 µM and 1.08 µM | 13.5 µM and > 7.44 µM | 14.2 µM and > 4.68 µM | 47.7 µM and > 7.41 µM
15 | NS(=O)(=O)c1ccc(N=Nc2c(O)[nH]c3cccc(CCc4ccncc4)c23)cc1 | > 25 µM | > 25 µM | > 25 µM | > 25 µM | > 25 µM | > 25 µM | > 25 µM | > 25 µM | > 25 µM | > 25 µM | > 25 µM | > 25 µM | > 25 µM | > 25 µM | > 25 µM | > 25 µM | > 25 µM | > 25 µM | > 25 µM | > 25 µM
16 | CCN1C2=C(SC(=S)C1=C1SC(C(=O)c3ccccc3)=C(C(=O)c3ccccc3)S1)SC(=Nc1ccccc1)C2=O | 53.4 µM | > 100 µM | > 100 µM | > 100 µM | 12.6 µM | > 63.4 µM | 25.7 µM | > 100 µM | > 100 µM | > 100 µM | 37.3 µM | > 100 µM | > 100 µM | > 100 µM | 12 µM | > 70.1 µM | 14.4 µM | > 100 µM | 5.2 µM | 42.7 µM
17 | CC(C)c1ccc2c(c1)CCC1C(C)(CN)CCCC21C (stereo not drawn) |  | 2.96 µM |  | 2.72 µM |  | 3.19 µM |  | 3.4 µM |  | 3.09 µM |  | 3.09 µM |  | 3.17 µM |  | 3.14 µM |  | 3.36 µM |  | 3.43 µM
